Measurements reported in EP4644392A1, “PYRIDAZINE FUSED ARYL RING COMPOUND AND USE THEREOF” (Chia Tai Tianqing Pharmaceutical Group Co., Ltd., priority 2022, dated 2024).
Where two headings read alike, the source gives them in different places.

How the values were obtained:
[1] = test system: IL-1β expression in THP-1 cells; test: In-vitro THP-1 cell (IL-1β) expression assay (LPS + nigericin, ELISA); type: cell-based; details: Homo sapiens; for inhibition at 0.001 µM: THP-1, read-out: 1 nM (% inhibition); for inhibition at 0.01 µM: THP-1, read-out: 10 nM (% inhibition); for inhibition at 0.1 µM: THP-1, read-out: 100 nM (% inhibition)
Procedure: THP-1 cells in good growth status were collected into a centrifuge tube, and the cell density was adjusted to 2 × 10^6 cells/mL. The cells were then seeded into a 96-well plate (50 µL/well), and meanwhile, LPS (manufacturer: Sigma; 50 µL/well) was added at a final concentration of 100 ng/mL. The plate was then incubated at 37 °C with 5% CO2 for 3 h. […] The plate was incubated at 37 °C with 5% CO2 for 1 h. Nigericin (manufacturer: Millipore; 50 µL/well) was added at a final concentration of 10 µM, and the plate was incubated at 37 °C with 5% CO2 for 1 h and then centrifuged at 1500 rpm for 3 min. The supernatant was collected and stored at -20 °C for subsequent detection of human IL-1β.
Human IL-1β detection (manufacturer: R&D): Human IL-1β Capture Antibody (coating antibody) was added to a high-binding 96-well plate at a final concentration of 4 µg/mL (100 µL/well), and the plate was incubated at 4 °C overnight. The supernatant was discarded, and the plate was washed with PBST (300 µL/well, 3 times in total). A 1% BSA-PBS blocking buffer was added (200 µL/well), and the plate was blocked at 25 °C for 2 h. The supernatant was discarded, and the plate was washed with PBST (300 µL/well, 3 times in total). A standard curve sample and the diluted samples to be tested were then added (100 µL/well), and the plate was incubated at 25 °C for 2 h. The supernatant was discarded, and the plate was washed with PBST (300 µL/well, 3 times total). Human IL-1β Detection Antibody (detection secondary antibody) was added at a final concentration of 200 ng/mL (100 µL/well), and the plate was incubated at 25 °C for 2 h. The supernatant was discarded, and the plate was washed with PBST (300 µL/well, 3 times in total). Streptavidin-HRP (detection tertiary antibody) was then added (100 µL/well), and the plate was incubated at 25 °C for 20 min. The supernatant was discarded, and the plate was washed with PBST (300 µL/well, 3 times in total). TMB was added for color development (100 µL/well), and the plate was incubated at 25 °C for 5 min. Finally, 1 M H2SO4 was added to terminate the reaction (50 µL/well). Absorbance values were measured at 450/570 nm using a PerkinElmer Envision microplate reader. Data were analyzed using a four-parameter model to calculate the IL-1β expression amount and inhibition rate. […]

[2] = In-vitro stability in liver microsomes; details: human liver microsomes 0.5 mg/mL, NADPH, 37 °C, 1 h
[3] = test system: J774A.1 cells; test: Anti-pyroptosis activity assay in J774A.1 cells (CCK-8 readout, nigericin stimulation); type: cell-based; details: Mus musculus, J774.A1, nigericin 10 µM
[4] = microsomes, 1 h

Compound	Human Remaining amount at 60 min (%) [2]	Human Remaining amount at 60 min (%) [4]	inhibition at 0.001 µM [1]	inhibition at 0.01 µM [1]	EC50 [3]	inhibition at 0.1 µM [1]
CN1CCC[C@@H](Nc2nnc(-c3ccc(C(F)(F)F)cc3O)c3cc4sccc4n23)C1 [Example 2]		80.23%	10 to 50%	10 to 50%	< 100 nM	≥ 50%
CN1CCC[C@@H](Nc2nnc(-c3ccc(C(F)(F)F)cc3O)n3c2cc2sccc23)C1 [Example 3]			10 to 50%	10 to 50%	100 to 1000 nM	≥ 50%
CN1CCC[C@@H](Nc2nnc(-c3ccc(C(F)(F)F)cc3O)c3c4c(cn23)CCC4)C1 [Example 4]			10 to 50%	10 to 50%	100 to 1000 nM	≥ 50%
CN1CCC[C@@H](Nc2nnc(-c3ccc(C(F)(F)F)cc3O)n3cc4c(c23)CCC4)C1 [Example 5]	72.41%		10 to 50%	≥ 50%	< 100 nM	≥ 50%
CN1CCC[C@@H](Nc2nnc(-c3ccc(C(F)(F)F)cc3O)c3cc4c(n23)CCC4)C1 [Example 6]			10 to 50%	10 to 50%	100 to 1000 nM	≥ 50%
OCCN1CCC[C@@H](Nc2nnc(-c3ccc(C(F)(F)F)cc3O)n3cc4c(c23)CCC4)C1 [Example 8]	79.13%					
C#Cc1ccc(-c2nnc(N[C@@H]3CCCN(C)C3)c3c4c(cn23)CCC4)c(O)c1 [Example 11]	75.56%					
CN1CCC[C@@H](Nc2nnc(-c3ccc(Cl)cc3O)n3cccc23)C1 [Example 13]					< 100 nM	
OCCN1CCC[C@@H](Nc2nnc(-c3ccc(C(F)(F)F)cc3O)c3c4c(cn23)CCC4)C1 [Example 14]	93.13%					
C[C@]1(O)C[C@@H](Nc2nnc(-c3ccc(C(F)(F)F)cc3O)n3cccc23)C1 [Example 15]					100 to 1000 nM	
Oc1cc(C(F)(F)F)ccc1-c1nnc(N[C@@H]2COC[C@H]2O)c2c3c(cn12)CCC3 [Example 16]					100 to 1000 nM	
Oc1cc(C(F)(F)F)ccc1-c1nnc(N[C@@H]2COC[C@@H]2O)c2c3c(cn12)CCC3 [Example 17]					100 to 1000 nM	
Oc1cc(Cl)ccc1-c1nnc(N[C@@H]2COC[C@H]2O)c2c3c(cn12)CCC3 [Example 18]					100 to 1000 nM	
Oc1cc(C(F)(F)F)ccc1-c1nnc(N[C@@H]2CCCC[C@H]2O)c2c3c(cn12)CCC3 [Example 21]					< 100 nM	
CS(=O)(=O)N1CCC[C@@H](Nc2nnc(-c3ccc(C(F)(F)F)cc3O)n3cccc23)C1 [Example 22]					100 to 1000 nM	
O=S(=O)(C1CC1)N1CCC[C@@H](Nc2nnc(-c3ccc(C(F)(F)F)cc3O)n3cccc23)C1 [Example 24]					100 to 1000 nM	

Second part, led by results:

Human Remaining amount at 60 min (%) [2]	Human Remaining amount at 60 min (%) [4]	Compound	inhibition at 0.001 µM [1]	inhibition at 0.01 µM [1]	EC50 [3]	inhibition at 0.1 µM [1]
95.57%		CN1CCC[C@@H](Nc2nnc(-c3ccc(C(F)(F)F)cc3O)n3cccc23)C1 [Example 1]	≥ 50%	≥ 50%	< 100 nM	
90.01%		CN1CCC[C@@H](Nc2nnc(-c3ccc(C(F)(F)F)cc3O)n3c4c(cc23)CCC4)C1 [Example 7]				
98.65%		C#Cc1ccc(-c2nnc(N[C@@H]3CCCN(C)C3)c3cccn23)c(O)c1 [Example 9]	≥ 50%	≥ 50%	< 100 nM	≥ 50%
99.00%		CC#Cc1ccc(-c2nnc(N[C@@H]3CCCN(C)C3)c3cccn23)c(O)c1 [Example 10]				
100.53%		C=Cc1ccc(-c2nnc(N[C@@H]3CCCN(C)C3)c3cccn23)c(O)c1 [Example 12]	≥ 50%	≥ 50%		≥ 50%
93.93%		NS(=O)(=O)N1CCC[C@@H](Nc2nnc(-c3ccc(C(F)(F)F)cc3O)n3cccc23)C1 [Example 23]			< 100 nM	
98.06%		CS(=N)(=O)N1CCC[C@@H](Nc2nnc(-c3ccc(C(F)(F)F)cc3O)n3cccc23)C1 (stereo partly shown) [Example 25]			100 to 1000 nM	
